Assay results published in US20240382499A1, “INDUCERS OF SENESCENCE, IN COMBINATION WITH A SELECTIVE DEATH RECEPTOR 5 (DR5) AGONIST, FOR USE IN A METHOD OF TREATING CANCER” (Stichting Het Nederlands Kanker Instituut-Antoni van …, priority 2021, published 2024).

Key:
[1] = test system: Alisertib induced senescent and proliferating A549, H2030, H358, HCT116, MDA-MB-231 and MCF-7 cells; assay: Viability of alisertib-induced senescent versus proliferating cancer cell line panel (CellTiter-Blue dose response, Incucyte, colony formation); assay type: cell-based
Procedure: FIG. 2: (A) Western blot analysis of DR4, DR5, cFLIP in A549 cells treated with different senescence inducers for 1 week. VINC served as loading control. (B) A549 cells were firstly treated with 0.5 μM alisertib for 7 days to induce senescence. Afterwards, the senescent cells were suspended from alisertib, re-seeded in a 96-well plate then switched to 200 ng/ml recombinant Lz-TRAIL. The growth curves were measured by Incucyte cell proliferation assay. (C) Alisertib induced senescent and proliferating A549, H2030, H358, HCT116, MDA-MB-231 and MCF-7 cells were seeded into a 384-well plate and treated with Lz-TRAIL for 120 hrs. Cell viability were measured using CellTiter-Blue to generate dose response curve. (D) Senescence associated beta-galactosidase (SA-β-gal) staining in a cell line panel after treated with 0.5 μM alisertib for one week. (E) Cell viability […] was assessed by colony formation assay in the cell line panel. The cells were firstly treated with 0.5 μM alisertib for 7 days to induce senescence. […]
FIG. 3: (A) Human NF-kB pathway protein array analysis on the senescent A549 cells generated with 0.5 μM alisertib for 7 days. […] (C) Cell viability was assessed by colony formation assay in the A549 cells lentiviral shRNAs against DR4 or DR5. […] Cell viability were measured using CellTiter-Blue to generate dose response curve.

[2] = test system: PC9, TFK, EGI and Hep 1 cancer cells, and BJ and Rpe1 primary cells; assay: Dose-response curves (cell titer blue) for NEO2734 in the presence of conatumumab; assay type: cell-based, human; settings: 0.5 microgram/ml conatumumab, 96 hours
Text: FIG. 6: (A) Dose-response curves determined by cell viability using cell titer blue for NEO2734 in the presence of 0.5 microgram/ml conatumumab. Shown are dose response curves for PC9, TFK, EGI and Hep 1 cancer cells, and BJ and Rpe1 primary cells. (B) RNA sequencing results.
PC9 human lung cancer cells, Panc1 human pancreatic cancer cell line of ductal cell origin, Hep3B human epithelial hepatoma cells, H1975 human epithelial lung cancer cells, TFK bile duct cancer cells, EGI bile duct cancer cells, BJ human foreskin fibroblast cells and Rpe1 human retina pigmented epithelial cells were obtained from ATCC.
Cells were seeded into 384 well plates. Drugs were added after 24 hours.
To validate this finding, a BRD2 inhibitor, NEO2734, was used to combine with a DR5 activation antibody (conatumumab) and to test the combination in multiple cancer models, including a pancreatic cancer line of ductal cell origin Panc1, two epithelial hepatoma cell lines Hep3B and Hep1, two bile duct cancer cell lines TFK and EGI, two epithelial cancer lines PC9 and H1975. In addition, two primary cell lines BJ and Rpe1 were used to determine whether this drug combination would be less harmful to healthy cells.

cFLIP (CFLAR) = assay: RNA sequencing of NEO2734 treated cells; assay type: cell-based; settings: 0.5 μM NEO2734 for 1 week; PC9, TFK, EGI and Hep1
Procedure: RNA sequencing was performed on PC9, Hep1, EGI and TFK cells treated with 0.5 μM NEO2734 for 1 week. The expression changes of cFLIP and TNFRSF10B (DR5) were plotted.
To investigate the mechanism of this synergy effect from this drug combination, RNA sequencing was performed on NEO2734 treated cells (using four independent cell models PC9, TFK, EGI and Hep1) to identify genes that might be critical for the DR5 signaling pathway. […] This might explain why BRD2 inhibition may enhance the responsiveness of conatumumab.

[3] = test system: proliferating and senescent A549 and Hep1 cells; assay: Colony formation of proliferating and therapy-induced senescent A549 and Hep1 cells with NEO2734 and conatumumab; assay type: cell-based
Procedure: FIG. 8: Cell viability was assessed by colony formation assay using low doses of NEO2734 and conatumab. (A) Cell viability was assessed by a colony formation assay using low dose 0.25 μM of NEO2734 and 0.125 μg/ml conatumumab on Hep1 cells made senescent by one-week treatment of 0.5 μM alisertib, 1 μM barasertib, 50 nM CFI-400945 or 2 μM Etoposide. (B) Colony formation using low dose 0.25 μM of NEO2734 and 0.125 μg/ml conatumumab on Hep1, 0.25 μM of NEO2734 and 1 μg/ml conatumumab on A549 cells made senescent by one-week treatment of different senescence inducers (0.5 μM PF-06873600, 100 nM doxorubicin, 1 μM TAS-119 or combination of 5 nM trametinib plus 0.5 μM palbociclib.
Cells were treated with 0.5 μM alisertib for 7 days to induce senescence. These cells were seeded into 12 well plates. After 24 hours, the cells were treated with 0.5 μM NEO 2734 and indicated doses of conatumumab for 96 hours. Cells were fixed with 4% paraformaldehyde after 96 hours of drug treatment. The plates were stained with 2 mL 0.5% (w/v) crystal violet in H2O and photographed. Further, colony formation was investigated using 0.25 μM of NEO2734 and 0.125 μg/ml conatumumab on Hep1 cells made senescent by one-week treatment of 0.5 μM alisertib, 1 μM barasertib, 50 nM CFI-400945 or 2 μM Etoposide. Furthermore, colony formation was investigated using 0.25 μM of NEO2734 and 1 μg/ml conatumumab on A549 cells made senescent by one-week treatment of different senescence inducers, namely 0.5 μM PF-06873600, 100 nM doxorubicin or combination of 5 nM trametinib plus 0.5 μM palbociclib. Doxorubicin, PF-06873600, palbociclib and trametinib were purchased from Selleckchem (Houston, TX, USA).

Hep1 liver cancer cells = assay: Tumor growth of Hep1 xenografts in Balb/c nude mice; assay type: in vivo; settings: Hep1 xenograft; 30 mg/kg alisertib oral gavage, 5 μg conatumumab intraperitoneal, week days
Procedure: (§1) FIG. 4: (A) Tumor growth of Hep1 parental cells in the flanks of Balb/c nude mice subcutaneously injected with 1*10^7 cells. When tumors reached approximately 200 mm^3, assigned to either control, 30 mg/kg alisertib (oral gavage), 5 μg conatumumab (intraperitoneal injection) and the combination. The drugs were administrated during week days and suspended during the weekend. (B) Tumor growth of A549 parental cells in the flanks of Balb/c nude mice subcutaneously injected with 5*10^6 cells. When tumors reached approximately 200 mm3, assigned to either control, 30 mg/kg alisertib (oral gavage), 10 μg conatumumab (intraperitoneal injection) and the combination. The drugs were administrated during week days and suspended during the weekend. (C-E) Cell viability was assessed by colony formation assay in the A549 and Hep1 cells. The cells were firstly treated with different senescence inducers for 7 days to induce senescence. Afterwards, the senescent cells were suspended from the senescence inducers then re-seeded in a 12-well plate and switched to conatumumab or Lz-TRAIL treatment for 5 days. Proliferating cells were taken as a control. At the end of assay, cells were fixed, stained, and photographed.
(§2) To test the treatment in vivo, we engrafted Hep1 liver cancer cells and A549 lung cancer cells into immunodeficient nude mice. […]

A549 lung cancer cells = assay: Tumor growth of A549 xenografts in Balb/c nude mice; assay type: in vivo; settings: A549 xenograft; 30 mg/kg alisertib oral gavage, 10 μg conatumumab intraperitoneal, week days
Procedure: as §1, §2

TNFRSF10B (DR5), DR4 = assay: RNA sequencing of a senescent cell line panel, death receptor expression; assay type: cell-based; settings: data not shown
Procedure: RNA sequencing was performed on A549 cells treated with 0.5 alisertib μM for 1 week, and followed by gene set enrichment analysis (GSEA) of alisertib treated cells versus untreated control for multiple independent NF-KB signaling gene sets. (B) Real-time PCR analysis of DR4, DR5, cFLIP, TRAIL in A549 cells treated with 0.5 μM alisertib, 100 nM CFI-400945 and 2 μM Etoposide. GAPDH served as control.

[4] = test system: senescent A549 and Hep1 cells; assay: Colony formation of A549 and Hep1 cells made senescent with other senescence inducers; assay type: cell-based; settings: A549 and Hep1 made senescent with PLk4 inhibitor, etoposide and barasertib; treatment 5 days
Procedure: as §1

senescent cells = assay: Killing of senescent cells by conatumumab in vitro, time; assay type: cell-based
PC9, Hep1 and A549 = settings: 0.5 microgram/ml conatumumab
Procedure: FIG. 7: (A) Cell viability for the BRD2 inhibitor iBET in the presence of 0.5 microgram/ml conatumumab. […] Cells were seeded into 384 well plates. Drugs were added after 24 hours. Cell viability was measured using cell titer blue after 96 hours of drug treatment.

Q: CC1(C)CCC(c2ccc(Cl)cc2)=C(CN2CCN(c3ccc(C(=O)NS(=O)(=O)c4ccc(N[C@H](CCN5CCOCC5)CSc5ccccc5)c(S(=O)(=O)C(F)(F)F)c4)cc3)CC2)C1 [ABT-263] was tested. Which “senolytic effect in cell line panel (colony formation), TRAIL compared with ABT-263” value ([1]; alisertib-induced senescent cells, 12-well plate) did it give?
A: The value was “resistant”.

Q: How did the “effect on conatumumab responsiveness in primary cells (cell viability)” value ([2]; BJ and Rpe1 primary cells) turn out when Cc1cc(-c2ccc3nc(C4CCOCC4)n(CCOC(F)(F)F)c3c2)cn(C)c1=O [NEO2734, 1,3-dimethyl-5-[2-(oxan-4-yl)-3-[2-(trifluoromethoxy)ethyl]benzimidazol-5-yl]pyridin-2-one] was run?
A: Its value is “not in primary cells”.

Q: And the “effect on conatumumab responsiveness in cancer cells (cell viability)” value ([2]; cancer cells)?
A: The value was “enhance the conatumumab responsiveness”.

Q: And the “cFLIP (CFLAR) expression change” value (cFLIP (CFLAR))?
A: The value was “highly down-regulated”.

Q: What about the “effect on senolytic effect of DR5 activation (colony formation)” value ([3]; alisertib-induced senescent and proliferating A549 (1 μg/ml conatumumab) and Hep1 (0.125 μg/ml conatumumab)) of the same molecule?
A: The value was “improve the senolytic effect of DR5 activation”.

Q: How did the tumor growth (Hep1 liver cancer cells) turn out when COc1cc(Nc2ncc3c(n2)-c2ccc(Cl)cc2C(c2c(F)cccc2OC)=NC3)ccc1C(=O)O [alisertib, 4-[[9-chloro-7-(2-fluoro-6-methoxyphenyl)-5H-pyrimido[5,4-d][2]benzazepin-2-yl]amino]-2-methoxybenzoic acid] was run?
A: Its tumor growth is “limited tumor growth inhibition”.

Q: What about the tumor growth (A549 lung cancer cells) of the same molecule?
A: Its tumor growth is “limited tumor growth inhibition”.

Q: And the “DR4 expression in induced senescent cells” value (TNFRSF10B (DR5), DR4)?
A: The value was “not DR4”.

Q: And the “TNFRSF10B (DR5) expression in induced senescent cells” value (TNFRSF10B (DR5), DR4)?
A: The value was “upregulated”.

Q: For COc1cc([C@@H]2c3cc4c(cc3[C@@H](O[C@@H]3O[C@@H]5CO[C@@H](C)O[C@H]5[C@H](O)[C@H]3O)[C@H]3COC(=O)[C@H]23)OCO4)cc(OC)c1O [etoposide, (5S,5aR,8aR,9R)-5-[[(2R,4aR,6R,7R,8R,8aS)-7,8-dihydroxy-2-methyl-4,4a,6,7,8,8a-hexahydropyrano[3,2-d][1,3]dioxin-6-yl]oxy]-9-(4-hydroxy-3,5-dimethoxyphenyl)-5a,6,8a,9-tetrahydro-5H-[2]benzofuro[6,5-f][1,3]benzodioxol-8-one], which “DR4 expression in induced senescent cells” value (TNFRSF10B (DR5), DR4) is on record?
A: Its value is “not DR4”.

Q: And the “TNFRSF10B (DR5) expression in induced senescent cells” value (TNFRSF10B (DR5), DR4)?
A: Its value is “upregulated”.

Q: “conatumumab: DR5 agonistic IgG1 antibody; purchased from Creative Biolabs, or generated by expression of SEQ 1 and SEQ 3” was tested. Which “killing of senescent versus proliferating cells (cell viability)” value ([1]; alisertib 0.5 μM 7 days induced senescence, treatment 120 hrs, lung, breast, colon and liver cancer models) did it give?
A: Its value is “selective killing of senescent cells”.

Q: And the tumor growth (Hep1 liver cancer cells)?
A: The tumor growth was “limited tumor growth inhibition”.

Q: What about the tumor growth (A549 lung cancer cells) of the same molecule?
A: The tumor growth was “limited tumor growth inhibition”.

Q: And the “senolytic effect (colony formation)” value [4]?
A: The value was “strong senolytic effect”.

Q: What about the “dosage that will not lead to a significant impact on alisertib induced senescent cells” value ([3]; A549, titration) of the same molecule?
A: Its value is 1 µg/mL.

Q: And the “dosage that will not lead to a significant impact on alisertib induced senescent cells” value ([3]; Hep1, titration)?
A: Its value is 0.125 µg/mL.

Q: And the “time in which senescent cells are killed” value (senescent cells)?
A: Its value is 24 h.

Q: For iBET, which “effect on conatumumab responsiveness (cell viability)” value (PC9, Hep1 and A549) is on record?
A: The value was “efficiently enhance the responsiveness of conatumumab”.
